From patent US9624170B2, “4-(piperrazin-1-yl)-pyrrolidin-2-one compounds as monoacylglycerol lipase (MAGL) inhibitors” (TAKEDA PHARMACEUTICAL COMPANY LIMITED, priority 2013, dated 2017) come the findings set out here.

This assay deals with T1, human MAGL (His-hMAGL) (Homo sapiens, UniProt Q99685).
T1 construct: made in house; host or cells: Escherichia coli BL21(DE3)
T1 sequence (Q99685 1-303): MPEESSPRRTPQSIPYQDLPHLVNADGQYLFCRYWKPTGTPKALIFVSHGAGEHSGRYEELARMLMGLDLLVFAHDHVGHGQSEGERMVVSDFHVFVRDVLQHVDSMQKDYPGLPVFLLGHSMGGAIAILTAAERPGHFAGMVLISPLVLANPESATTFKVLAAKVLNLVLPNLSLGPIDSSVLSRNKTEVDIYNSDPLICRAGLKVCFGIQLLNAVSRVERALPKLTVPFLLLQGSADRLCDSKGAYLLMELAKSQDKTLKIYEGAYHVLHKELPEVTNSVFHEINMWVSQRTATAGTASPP
Description: Measurement of MAGL inhibitory activity by mass spectrometry. Format: biochemical. The following applies: MAGL inhibitory rate, test compound 10 μM, His-hMAGL, substrate 2-arachidonylglycerol, RapidFire-mass spectrometry. An outline of the steps: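 His-tagged human MAGL was reacted with 150 μM 2-arachidonylglycerol substrate (stock, added by 5 μL) for 10 min at room temperature, then stopped with formic acid. Arachidonic acid product was quantified by RapidFire–triple-quadrupole MS in negative SRM mode, corrected by arachidonic acid-d8, and converted to percent inhibition.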
On to `O=C(c1nccs1)N1CCN(C2CC(=O)N(c3ccc4c(c3)CCN4C(=O)Cc3ccc(Cl)cc3)C2)CC1` (stereo not shown) [Example 393, 1-(1-((4-chlorophenyl)acetyl)-2,3-dihydro-1H-indol-5-yl)-4-(4-(1,3-thiazol-2-ylcarbonyl)piperazin-1-yl)pyrrolidin-2-one], for which the inhibition (usually the relative decrease from the control value, in per cent) at 10 µM is 93%.

On to `O=C(c1nccs1)N1CCN(C2CC(=O)N(c3ccc4c(c3)CCN4C(=O)Cc3cccc(Cl)c3)C2)CC1` (stereo not shown) [Example 394, 1-(1-((3-Chlorophenyl)acetyl)-2,3-dihydro-1H-indol-5-yl)-4-(4-(1,3-thiazol-2-ylcarbonyl)piperazin-1-yl)pyrrolidin-2-one], for which the inhibition at 10 µM worked out at 98%.

`O=C(c1nccs1)N1CCN(C2CC(=O)N(c3ccc4c(c3)CCN4C(=O)Cc3ccccc3Cl)C2)CC1` (stereo not shown) [Example 395, 1-(1-((2-chlorophenyl)acetyl)-2,3-dihydro-1H-indol-5-yl)-4-(4-(1,3-thiazol-2-ylcarbonyl)piperazin-1-yl)pyrrolidin-2-one]: the inhibition at 10 µM came out at 102%.

Turning to `O=C(c1nccs1)N1CCN(C2CC(=O)N(c3ccc4c(c3)CCN4C(=O)c3ccccc3)C2)CC1` (stereo not shown) [Example 396, 1-(1-benzoyl-2,3-dihydro-1H-indol-5-yl)-4-(4-(1,3-thiazol-2-ylcarbonyl)piperazin-1-yl)pyrrolidin-2-one], the inhibition at 10 µM came out at 97%.

`CC(C)CC(=O)N1CCc2cc(N3CC(N4CCN(C(=O)c5nccs5)CC4)CC3=O)ccc21` (stereo not shown) [Example 397, 1-(1-(3-methylbutanoyl)-2,3-dihydro-1H-indol-5-yl)-4-(4-(1,3-thiazol-2-ylcarbonyl)piperazin-1-yl)pyrrolidin-2-one]: the inhibition at 10 µM stood at 101%.

`O=C(c1nccs1)N1CCN(C2CC(=O)N(c3ccc4c(c3)CCN4C(=O)CC3CC3)C2)CC1` (stereo not shown) [Example 398, 1-(1-(cyclopropylacetyl)-2,3-dihydro-1H-indol-5-yl)-4-(4-(1,3-thiazol-2-ylcarbonyl)piperazin-1-yl)pyrrolidin-2-one]: the inhibition at 10 µM was determined as 100%.

As to `O=C(c1nccs1)N1CCN(C2CC(=O)N(c3ccc4c(c3)CCN4C(=O)CC(F)(F)F)C2)CC1` (stereo not shown) [Example 399, 4-(4-(1,3-thiazol-2-ylcarbonyl)piperazin-1-yl)-1-(1-(3,3,3-trifluoropropanoyl)-2,3-dihydro-1H-indol-5-yl)pyrrolidin-2-one], the inhibition at 10 µM was found to be 95%.

For the compound `O=C(c1nccs1)N1CCN(C2CC(=O)N(c3ccc4c(c3)CCN4C(=O)C3CCOCC3)C2)CC1` (stereo not shown) [Example 400, 1-(1-(tetrahydro-2H-pyran-4-ylcarbonyl)-2,3-dihydro-1H-indol-5-yl)-4-(4-(1,3-thiazol-2-ylcarbonyl)piperazin-1-yl)pyrrolidin-2-one], the inhibition at 10 µM came out at 96%.

Consider `O=C(c1nccs1)N1CCN(C2CC(=O)N(c3ccc4c(c3)CCN4C(=O)CC3CCOCC3)C2)CC1` (stereo not shown) [Example 401, 1-(1-(tetrahydro-2H-pyran-4-ylacetyl)-2,3-dihydro-1H-indol-5-yl)-4-(4-(1,3-thiazol-2-ylcarbonyl)piperazin-1-yl)pyrrolidin-2-one], for which the inhibition at 10 µM came out at 94%.

In the case of `O=C(c1nccs1)N1CCN([C@@H]2CC(=O)N(c3cc4ccn(-c5ccc(C(F)(F)F)cn5)c4cn3)C2)CC1` [Example 402, (4R)-4-(4-(1,3-thiazol-2-ylcarbonyl)piperazin-1-yl)-1-(1-(5-(trifluoromethyl)pyridin-2-yl)-1H-pyrrolo[2,3-c]pyridin-5-yl)pyrrolidin-2-one], the inhibition at 10 µM came out at 94%.

With `O=C1CC(N2CCN(c3ncccn3)CC2)CN1c1cc(F)cc(Br)c1` (stereo not shown) [Example 403, 1-(3-Bromo-5-fluorophenyl)-4-(4-(pyrimidin-2-yl)piperazin-1-yl)pyrrolidin-2-one], the inhibition at 10 µM came to 91%.

Turning to `Cc1ncccc1-c1cc(N2CC(N3CCN(c4ncccn4)CC3)CC2=O)ccc1F` (stereo not shown) [Example 404, 1-(4-fluoro-3-(2-methylpyridin-3-yl)phenyl)-4-(4-(pyrimidin-2-yl)piperazin-1-yl)pyrrolidin-2-one], the inhibition at 10 µM was 96%.

As for `O=C(c1cscn1)N1CCN([C@@H]2CC(=O)N(c3ccc4c(c3)CCN4c3ccc(C(F)(F)F)cc3)C2)CC1` [Example 405, (4R)-4-(4-(1,3-Thiazol-4-ylcarbonyl)piperazin-1-yl)-1-(1-(4-(trifluoromethyl)phenyl)-2,3-dihydro-1H-indol-5-yl)pyrrolidin-2-one], the inhibition at 10 µM is 103%.

As to `Cc1ncccc1-c1cc(F)cc(N2CC(N3CCN(c4ncccn4)CC3)CC2=O)c1` (stereo not shown) [Example 406, 1-(3-Fluoro-5-(2-methylpyridin-3-yl)phenyl)-4-(4-(pyrimidin-2-yl)piperazin-1-yl)pyrrolidin-2-one], the inhibition at 10 µM was 98%.

In the case of `COc1cnc(N2CCc3cc(N4C[C@H](N5CCN(C(=O)c6nccs6)CC5)CC4=O)ccc32)nc1` [Example 407, (4R)-1-(1-(5-methoxypyrimidin-2-yl)-2,3-dihydro-1H-indol-5-yl)-4-(4-(1,3-thiazol-2-ylcarbonyl)piperazin-1-yl)pyrrolidin-2-one], the inhibition at 10 µM stood at 104%.

Consider `CC(C)(C)OC(=O)N1CCc2cc(N3C[C@H](N4CCN(C(=O)c5cscn5)CC4)CC3=O)ccc21` [Example 408, tert-butyl 5-((4R)-2-oxo-4-(4-(1,3-thiazol-4-ylcarbonyl)piperazin-1-yl)pyrrolidin-1-yl)indoline-1-carboxylate], for which the inhibition at 10 µM came to 103%.

With `CC(C)(C)CC(=O)N1CCc2cc(N3CC(N4CCN(c5ncccn5)CC4)CC3=O)ccc21` (stereo not shown) [Example 409, 1-(1-(3,3-dimethylbutanoyl)-2,3-dihydro-1H-indol-5-yl)-4-(4-(pyrimidin-2-yl)piperazin-1-yl)pyrrolidin-2-one], the inhibition at 10 µM was determined as 94%.

Take `COc1ccc(CC(=O)N2CCc3cc(N4CC(N5CCN(c6ncccn6)CC5)CC4=O)ccc32)cn1` (stereo not shown) [Example 410, 1-(1-((6-methoxypyridin-3-yl)acetyl)-2,3-dihydro-1H-indol-5-yl)-4-(4-(pyrimidin-2-yl)piperazin-1-yl)pyrrolidin-2-one]: the inhibition at 10 µM stood at 80%.

In the case of `O=C1CC(N2CCN(c3ncccn3)CC2)CN1c1ccc2c(c1)CCN2C(=O)Cc1ccc(F)cc1` (stereo not shown) [Example 413, 1-(1-((4-fluorophenyl)acetyl)-2,3-dihydro-1H-indol-5-yl)-4-(4-(pyrimidin-2-yl)piperazin-1-yl)pyrrolidin-2-one], the inhibition at 10 µM was found to be 94%.

For `CC(C)(C)CC(=O)N1CCc2cc(N3C[C@H](N4CCN(C(=O)c5cscn5)CC4)CC3=O)ccc21` [Example 414, (4R)-1-(1-(3,3-dimethylbutanoyl)-2,3-dihydro-1H-indol-5-yl)-4-(4-(1,3-thiazol-4-ylcarbonyl)piperazin-1-yl)pyrrolidin-2-one], the inhibition at 10 µM was 100%.

As to `O=C(c1cscn1)N1CCN([C@@H]2CC(=O)N(c3ccc4c(c3)CCN4C(=O)Cc3ccc(Cl)cc3)C2)CC1` [Example 415, (4R)-1-(1-((4-chlorophenyl)acetyl)-2,3-dihydro-1H-indol-5-yl)-4-(4-(1,3-thiazol-4-ylcarbonyl)piperazin-1-yl)pyrrolidin-2-one], the inhibition at 10 µM worked out at 97%.

With `O=C(c1cscn1)N1CCN([C@@H]2CC(=O)N(c3ccc4c(c3)CCN4C(=O)Cc3cccc(Cl)c3)C2)CC1` [Example 416, (4R)-1-(1-((3-chlorophenyl)acetyl)-2,3-dihydro-1H-indol-5-yl)-4-(4-(1,3-thiazol-4-ylcarbonyl)piperazin-1-yl)pyrrolidin-2-one], the inhibition at 10 µM turned out to be 99%.

For the compound `O=C(c1cscn1)N1CCN([C@@H]2CC(=O)N(c3ccc4c(ccn4-c4ccc(C(F)(F)F)cc4)c3)C2)CC1` [Example 418, (4R)-4-(4-(1,3-Thiazol-4-ylcarbonyl)piperazin-1-yl)-1-(1-(4-(trifluoromethyl)phenyl)-1H-indol-5-yl)pyrrolidin-2-one], the inhibition at 10 µM was found to be 96%.

On to `O=C(c1cscn1)N1CCN([C@@H]2CC(=O)N(c3ccc4c(ccn4-c4ccc(C(F)(F)F)cn4)c3)C2)CC1` [Example 419, (4R)-4-(4-(1,3-Thiazol-4-ylcarbonyl)piperazin-1-yl)-1-(1-(5-(trifluoromethyl)pyridin-2-yl)-1H-indol-5-yl)pyrrolidin-2-one], for which the inhibition at 10 µM stood at 96%.

For the compound `O=C(c1cscn1)N1CCN([C@@H]2CC(=O)N(c3ccc4c(c3)CCN4c3ccc(C(F)(F)F)cn3)C2)CC1` [Example 420, (4R)-4-(4-(1,3-Thiazol-4-ylcarbonyl)piperazin-1-yl)-1-(1-(5-(trifluoromethyl)pyridin-2-yl)-2,3-dihydro-1H-indol-5-yl)pyrrolidin-2-one], the inhibition at 10 µM stood at 89%.

As for `O=C(c1cscn1)N1CCN([C@@H]2CC(=O)N(c3ccc4c(ccn4-c4cccc(C(F)(F)F)c4)c3)C2)CC1` [Example 421, (4R)-4-(4-(1,3-thiazol-4-ylcarbonyl)piperazin-1-yl)-1-(1-(3-(trifluoromethyl)phenyl)-1H-indol-5-yl)pyrrolidin-2-one], the inhibition at 10 µM turned out to be 100%.

For `O=C(c1cscn1)N1CCN([C@@H]2CC(=O)N(c3ccc4c(ccn4-c4cccc(F)c4)c3)C2)CC1` [Example 422, (4R)-1-(1-(3-fluorophenyl)-1H-indol-5-yl)-4-(4-(1,3-thiazol-4-ylcarbonyl)piperazin-1-yl)pyrrolidin-2-one], the inhibition at 10 µM was 99%.

As to `O=C(c1cscn1)N1CCN([C@@H]2CC(=O)N(c3ccc4c(ccn4-c4ccc(Cl)cc4)c3)C2)CC1` [Example 423, (4R)-1-(1-(4-Chlorophenyl)-1H-indol-5-yl)-4-(4-(1,3-thiazol-4-ylcarbonyl)piperazin-1-yl)pyrrolidin-2-one], the inhibition at 10 µM worked out at 98%.
